These are literature values, as cited in US20180221406A1, “THERAPEUTIC COMBINATIONS OF ANTIVIRAL AND ANTI-INFLAMMATORY THERAPIES” (Foresight Biotherapeutics, Inc., priority 2015, published 2018).

Data set [1] has as its system respiratory syncytial virus (RSV). Conditions: in vivo.
In data set [2] the test system is acute rhinosinusitis principally of viral origin. The conditions noted are these: in vivo.

Take `C[C@@H]1C[C@H]2[C@@H]3CCC4=CC(=O)C=C[C@]4(C)[C@@]3(F)[C@@H](O)C[C@]2(C)[C@@]1(O)C(=O)CO` [dexamethasone, (8S,9R,10S,11S,13S,14S,16R,17R)-9-fluoro-11,17-dihydroxy-17-(2-hydroxyacetyl)-10,13,16-trimethyl-6,7,8,11,12,14,15,16-octahydrocyclopenta[a]phenanthren-3-one]: the “Efficacy in bronchiolitis caused by RSV” value in data set [1] was “ineffective”.

Take `C[C@]12C=CC(=O)C=C1CC[C@@H]1[C@@H]2[C@@H](O)C[C@@]2(C)[C@H]1CC[C@]2(O)C(=O)CO` [prednisolone]: the “Efficacy in uncomplicated acute rhinosinusitis” value in data set [2] was “ineffective”.
